Consider one molecule from patent publication US20090318449A1, “THERAPEUTIC LACTAMS” (ALLERGAN, INC., priority 2008, published 2009).

The test deals with lashes and adjacent hairs of glaucoma patients. Briefly: Eyelash/hair growth observed in glaucoma patients treated in one eye. The conditions noted are these: glaucoma patients treated in only one eye. The format is in vivo, humans. The source says: In the course of treating patients having glaucoma, treatment may only be appropriate in one eye. […] The lash appearance on the lids of the treated eyes would have appeared quite attractive if it represented a bilateral phenomenon. As a result of its asymmetric nature, the long lashes on one side could be construed as disturbing from a cosmetic standpoint. A systemic examination was preformed as a result of the asymmetric phenomenon. It soon became apparent that this altered appearance was not an isolated finding. […] Definite differences could be identified to varying degrees in the lashes and adjacent hairs of all patients who were taking the drug on a unilateral basis for longer than 6 months.
The changes in the lashes were apparent on gross inspection in several patients once attention was focused on the issue. In those with light colored hair and lashes, the differences were only seen easily with the aid of the high magnification and lighting capabilities of the slit lamp biomicroscope. In the course of glaucoma follow-up examination, attention is generally immediately focused on the eye itself. As a result of the high power magnification needed only one eye is seen at a time and the eye is seen at a high enough power that the lashes are not in focus. […]

SMILES strings stand for the structures.

With `CCNC(=O)CCC/C=C\C[C@@H]1[C@@H](/C=C/[C@@H](O)CCc2ccccc2)[C@H](O)C[C@@H]1O` [bimatoprost], the “lash appearance, treated eye versus non-treated eye” value was “longer, thicker, and fuller”.
